From patent US5383848A, “Iontophoretic administration of drugs” (Gensia, Inc., priority 1991, dated 1995)
“And” between values parts separate entries of the source, which are not always exact repeats. Identical values can stand only once.

What was measured:
[1] = Preclinical and clinical studies using intravenous (IV) infusion of an ESA drug; conditions: in vivo, read-out: Pharmacokinetic and pharmacodynamic half-life
Procedure: Referring to FIG. 3, dog "PO", 0.08 microgram of GP 2-121-3 per kilogram of dog body weight per minute was administered over a 7 minute period. Referring to FIG. 4, dog "BO", 0.10 microgram of GP 2-121-3per kilogram per minute was administered over a 10 minute period.

elevated heart rate [2] = assay: Additional in vivo dog experiments: dermal clearance enhancer pretreatment then arbutamine TDI (Example C); set-up: species or system labrador dogs; conditions: for CHANGE IN HEART RATE / DELAY TIME / TIME TO REACH 10% DECLINE IN HEART RATE / TIME TO REACH 20% DECLINE IN HEART RATE / TIME TO REACH 30% DECLINE IN HEART RATE / TIME TO REACH 40% DECLINE IN HEART RATE / TIME TO REACH 50% DECLINE IN HEART RATE / HALF-LIFE: single dog run, hydrochloride; for HALF-LIFE: heart rate decline
Procedure: Additional experiments were performed to study the effect of certain compositions on the offset time and dermal clearance in dogs.
In these experiments, the formulation to be tested was applied either topically or by transdermal iontophoresis (TDI) as described below.
Six labrador dogs (20 to 30 kg) were trained to lie quietly on a table. Before each experiment, three ECG electrodes (one lead) were applied on shaved areas of the back (near the front legs) to obtain the heart rate. The outer hind leg area (either right or left) was shaved prior to each experiment, with care taken not to cut or visibly damage the skin. The area was cleaned with soap and water and the skin was then […] using an alcohol swab followed by skin preparation with 3M One-Step-Prep™ tape.
Each vasodilator that was delivered by TDI used a 1.8 cm^2 electrode (Graphic Controls, Buffalo, N.Y.) containing the vasodilator in a gel at the concentrations listed in experimental methods section. In all experiments, an indifferent electrode containing a phosphate-buffered-saline gel was applied to the skin in conjunction with the electrode containing the vasodilator. Each vasodilator tested was applied for 10 minutes using a current of 0.6 mA/cm^2. During this time the heart rate was continuously recorded (at 5 second intervals) with the ESA Research System. The delivery electrodes were then removed, and any excess gel adhering to the skin was gently removed using a tissue.
Each topically applied vasodilator was applied to the skin in a volume of approximately 0.25 ml. The agent was allowed to absorb into the skin, during which time the heart rate was continuously recorded for 10 minutes using the ESA Research System.
To test if heat alone would produce sufficient vasodilation, a 60° C. hot pack was applied to the skin 10 minutes prior to drug delivery, during which time the heat rate was continuously recorded by the ESA System. Once drug delivery electrodes were applied, the heat pack was reheated and placed on top of them for the duration of the study.
The purpose of this treatment was to produce an elevated heart rate response of at least 40 beats-per-minute above baseline lasting for at least 30 minutes.
^1/ The dose (ITCA) was calculated by multiplying the applied current density (mA/cm^2) by the duration of delivery (minutes) and the drug concentration (%) and the area of the electrode (cm^2). […] The units of ITCA are mA.minutes.
The important variables for this analysis are:
1) delay between time when drug administration was stopped and start of decline in heart rate;
2) the time (minutes) to reach successive percent levels (i.e. 10, 20, 30, 40, and 50% decline) from the point of maximum change in heart rate^2.
3) the half-life (minutes) of the heart rate decline obtained from an exponential fit of the offset slope.
A combination of over-the-counter (OTC) and proprietary formulations were selected for comparison. […] Two dogs received each treatment at least one time.
The six dogs are identified in the table as BA, BB, BO, MI, PO and SA, followed by the experimental identification number. These dogs received control (no pretreatment) and five DCE pretreatment regimens.

elevated heart rate [3] = assay: In vivo dog experiments: heart rate offset after iontophoretic ESA drug with pretreatment (Example A); set-up: species or system labrador dogs; conditions: for Offset Slope Component (0-5) min: 0-5 min after heart rate begins to decline; for Offset Slope Component (5-10) min: 5-10 min after decline begins; for Offset Slope Component (10-30) min: 10-30 min after decline begins; for Change in Heart Rate (peak minus baseline) / Peak Heart Rate: Table II; for Total time (startup) thru offset plateau: in words: Table IV; for Onset Slope: baseline at onset time to peak heart rate; for Decline in heart rate after ESA drug without pretreatment: control runs, hydrochloride; for Offset time: drug delivery stopped until within 20 bpm of baseline; for Offset Slope: drug shut-off to 20 bpm above baseline; for Delay: drug shut-off to start of heart rate decline; for Onset time: start of delivery to start of increase in heart rate; for Time Start Decline: time when elevated heart rate began to decline
[4] = Protein binding of arbutamine to albumin in IPPSF perfusate; format: in vitro ADME; conditions: bovine, IPPSF perfusate media

Structure (SMILES): Cl.Oc1ccc(CCCCNCC(O)c2ccc(O)c(O)c2)cc1 (stereo not drawn) [Arbutamine, 1-(3,4-dihydroxy-phenyl)-2-(4-(4-hydroxyphenyl)butylamino)ethanol hydrochloride]
- HALF-LIFE [1]: ~7 min
- experimental half-life (elevated heart rate [2]): 31 min
- heart rate following TDI arbutamine without pretreatment (elevated heart rate [2]; FIGS. 3 and 4): prolonged elevation of heart rate
- CHANGE IN HEART RATE, Mean (elevated heart rate [2]; Table VII, mean of runs): 74.68 BPM
- DELAY TIME, Mean (elevated heart rate [2]; Table VII, mean of runs): 7.10 min
- HALF-LIFE, Mean (elevated heart rate [2]; Table VII, mean of runs): 30.91 min
- TIME TO REACH 10% DECLINE IN HEART RATE, Mean (elevated heart rate [2]; Table VII, mean of runs): 10.19 min
- TIME TO REACH 20% DECLINE IN HEART RATE, Mean (elevated heart rate [2]; Table VII, mean of runs): 15.98 min
- TIME TO REACH 30% DECLINE IN HEART RATE, Mean (elevated heart rate [2]; Table VII, mean of runs): 21.96 min
- TIME TO REACH 40% DECLINE IN HEART RATE, Mean (elevated heart rate [2]; Table VII, mean of runs): 27.72 min
- TIME TO REACH 50% DECLINE IN HEART RATE, Mean (elevated heart rate [2]; Table VII, mean of runs): 31.37 min
- CHANGE IN HEART RATE (elevated heart rate [2]; Table VII, listed as Control): 52.17 BPM and 123.25 BPM and 60.00 BPM and 88.00 BPM and 87.00 BPM and 63.00 BPM and 78.80 BPM and 54.05 BPM and 88.07 BPM and 94.17 BPM and 54.44 BPM and 58.44 BPM and 77.47 BPM and 82.88 BPM and 77.08 BPM
- DELAY TIME (elevated heart rate [2]; Table VII, listed as Control): 1.57 min and 1.00 min and 60.00 min and 5.50 min and 7.00 min and 5.10 min and 3.66 min and 2.28 min and 0.00 min and 1.67 min and 3.10 min and 9.20 min and 8.54 min and 1.99 min and 1.44 min
- TIME TO REACH 10% DECLINE IN HEART RATE (elevated heart rate [2]; Table VII, listed as Control): 3.20 min and 6.24 min and 60.00 min and 7.07 min and 9.35 min and 8.80 min and 5.53 min and 4.53 min and 2.28 min and 9.66 min and 7.04 min and 10.79 min and 9.50 min and 4.00 min and 4.04 min
- TIME TO REACH 20% DECLINE IN HEART RATE (elevated heart rate [2]; Table VII, listed as Control): 4.83 min and 9.16 min and 60.00 min and 98.65 min and 11.70 min and 7.41 min and 6.79 min and 4.55 min and 19.65 min and 16.54 min and 23.38 min and 10.47 min and 5.04 min and 6.82 min
- TIME TO REACH 30% DECLINE IN HEART RATE (elevated heart rate [2]; Table VII, listed as Control): 6.46 min and 12.67 min and 60.00 min and 10.21 min and 14.16 min and 9.91 min and 9.23 min and 10.58 min and 29.56 min and 23.02 min and 13.98 min and 11.43 min and 8.54 min and 11.63 min
- TIME TO REACH 40% DECLINE IN HEART RATE (elevated heart rate [2]; Table VII, listed as Control): 19.07 min and 17.19 min and 60.00 min and 16.92 min and 18.71 min and 13.84 min and 11.73 min and 22.82 min and 29.50 min and 16.23 min and 12.39 min and 11.49 min and 13.58 min
- TIME TO REACH 50% DECLINE IN HEART RATE (elevated heart rate [2]; Table VII, listed as Control): 22.93 min and 21.70 min and 60.00 min and 24.25 min and 24.54 min and 25.97 min and 16.68 min and 30.00 min and 33.10 min and 18.58 min and 113.35 min and 15.32 min and 15.52 min
- CHANGE IN HEART RATE (elevated heart rate [2]; Table VII, listed as control): 56.00 BPM
- DELAY TIME (elevated heart rate [2]; Table VII, listed as control): 1.50 min
- TIME TO REACH 10% DECLINE IN HEART RATE (elevated heart rate [2]; Table VII, listed as control): 11.00 min
- TIME TO REACH 20% DECLINE IN HEART RATE (elevated heart rate [2]; Table VII, listed as control): 60.00 min
- TIME TO REACH 30% DECLINE IN HEART RATE (elevated heart rate [2]; Table VII, listed as control): 60.00 min
- TIME TO REACH 40% DECLINE IN HEART RATE (elevated heart rate [2]; Table VII, listed as control): 60.00 min
- TIME TO REACH 50% DECLINE IN HEART RATE (elevated heart rate [2]; Table VII, listed as control): 60.00 min
- HALF-LIFE (elevated heart rate [2]; Table VII, listed as Control): 12.53 min and 60.00 min and 20.60 min and 13.72 min and 25.09 min and 52.48 min and 2.42 min and 12.81 min and 9.60 min
- HALF-LIFE (elevated heart rate [2]; Table VII, listed as control): 60.00 min
- Offset Slope Component (0-5) min (elevated heart rate [3]; listed as 1, hydrochloride): -0.40 beats per minute per minute
- Offset Slope Component (0-5) min (elevated heart rate [3]; listed as 2, hydrochloride): -3.70 beats per minute per minute
- Offset Slope Component (5-10) min (elevated heart rate [3]; listed as 1, hydrochloride): -0.80 beats per minute per minute
- Offset Slope Component (5-10) min (elevated heart rate [3]; listed as 2, hydrochloride): 1.70 beats per minute per minute
- Offset Slope Component (10-30) min (elevated heart rate [3]; listed as 1, hydrochloride): -0.02 beats per minute per minute
- Offset Slope Component (10-30) min (elevated heart rate [3]; listed as 2, hydrochloride): -0.50 beats per minute per minute
- Change in Heart Rate (peak minus baseline) (elevated heart rate [3]; listed as 1, hydrochloride): 56 bpm
- Peak Heart Rate (elevated heart rate [3]; listed as 1, hydrochloride): 123 bpm
- Change in Heart Rate (peak minus baseline) (elevated heart rate [3]; listed as 2, hydrochloride): 87 bpm
- Peak Heart Rate (elevated heart rate [3]; listed as 2, hydrochloride): 160 bpm
- Total time (startup) thru offset plateau: in words (elevated heart rate [3]; listed as 1, hydrochloride): Never reached to w/in 20 bpm of baseline
- Total time (startup) thru offset plateau: in words (elevated heart rate [3]; listed as 2, hydrochloride): Never reached to w/in 20 bpm pf baseline
- Onset Slope (elevated heart rate [3]; listed as 1, hydrochloride): 6.80 beats per minute per minute
- Onset Slope (elevated heart rate [3]; listed as 2, hydrochloride): 17.60 beats per minute per minute
- Decline in heart rate after ESA drug without pretreatment (elevated heart rate [3]): essentially no reduction in heart rate
- Decline in heart rate after ESA drug without pretreatment (elevated heart rate [3]; listed as ESA™ drug): no decline in heart rate during the first hour
- Offset time (elevated heart rate [3]; listed as 1, hydrochloride): 29.00 min
- Offset time (elevated heart rate [3]; listed as 2, hydrochloride): 39.00 min
- Offset Slope (elevated heart rate [3]; listed as 1, hydrochloride): -0.30 beats per minute per minute
- Offset Slope (elevated heart rate [3]; listed as 2, hydrochloride): -0.25 beats per minute per minute
- Delay (elevated heart rate [3]; listed as 1, hydrochloride): 1.50 min
- Delay (elevated heart rate [3]; listed as 2, hydrochloride): 7.00 min
- Onset time (elevated heart rate [3]; listed as 1, hydrochloride): 9.00 min
- Onset time (elevated heart rate [3]; listed as 2, hydrochloride): 5.00 min
- Time Start Decline (elevated heart rate [3]; listed as 1, hydrochloride): 14.00 min
- Time Start Decline (elevated heart rate [3]; listed as 2, hydrochloride): 12.50 min
- fraction unbound [4]: 0.36
